These results are taken from patent US9480662B1 (priority 2015, dated 2016).

The nature of series [1]: Plasma analysis and pharmacokinetics after intravaginal administration. How it is done: The low dose of 1 mg represents the largest potential human dose on an mg/kg basis. The high dose of 20 mg represents the largest potential total human dose unadjusted for body weight.
Pharmacokinetic parameters were determined by non-compartmental methods using Phoenix™ WinNonlin® (Version 6.3.0) Model: Plasma Data, Extravascular Administration for individual serial sample collection data (Pharsight Corporation). Area under the curve values were calculated using the linear trapezoidal rule with linear interpolation. […] Nominal sample collection time was used for the analysis unless the actual sample collection time exceeded the allowable collection window for the respective time; in which case, the actual sample collection time was used. Pharmacokinetic parameter data manipulation was performed using Excel 2010 (Microsoft Corporation).
Pharmacokinetic parameters determined were defined as follows: • Cmax: Maximum observed concentration occurring at Tmax. Tmax: Time of maximum observed concentration. • AUC0-t: Area under the curve from the time of dosing to the time of the last observation.

For series [2] the following is noted: oral, cited from earlier work.
Series [3] has as its system postmenopausal hysterectomized patients with atrophic vaginitis. The series is described as follows: Pilot study of tamoxifen citrate vaginal suppository: vaginal pH. The series is classed as in vivo, human. The method, then: (§1) Methodology. Open-label prospective cohort study. Postmenopausal women with atrophic vaginitis were confirmed by vaginal pH. At baseline, vaginal pH and measure of their subjective vaginal dryness based on a VAS vaginal dryness. Four subjects were treated with vaginal suppositories of tamoxifen citrate for three months. After eight weeks of treatment, subjects had pharmacokinetic studies of the vaginal suppository.
(§2) Research Design. Healthy women with atrophic vaginitis were recruited to this study. To be eligible to enroll in the study, subjects underwent one screening visit. This visit was to determine the subject's vaginal pH and to measure of their subjective vaginal dryness based on a VAS. Once the subject met eligibility criteria, they received study medication.
(§3) Subjects received supplies of the study drug every six weeks.
(§4) Duration of Treatment. Participants were given the vaginal suppository every day for one week and then two times per week thereafter for 3 months. They were told how to insert the test drug (using the applicator, place the study drug deep into the vagina) and the dosing schedule.
(§5) Statistical Methods. The primary endpoints are changes in the self-assessment of vaginal dryness and vaginal pH defined as the difference between the baseline and the 3-month measurements. Descriptive statistics provided for the continuous study endpoints will include mean, median, standard deviation, and 95% confidence intervals. Descriptive statistics provided for categorical endpoints will include frequencies, percents, and 95% confidence intervals. Missing values of a variable will be imputed using the last observed value for the participant. Descriptive statistics will be provided with and without imputation of missing values.

For the next series, the system named is female rabbits. The series is described as follows: 28-day intravaginal irritation study, modified Draize vaginal scoring. In kind it is in vivo, New Zealand White rabbit. How it is done:
The testing was conducted following once daily intravaginal administration to female rabbits for 28 days to provide evaluation of the reversibility, progression, or delayed appearance of any observed changes following a 14-day postdose observation period. The animal model most commonly used to evaluate safety of vaginally administered products is the rabbit and the ovariectomized rat. However, the rabbit is considered the more sensitive model, and thus, was selected for this study.
Assessment of toxicity and/or irritation was based on mortality, clinical observations, vaginal irritation scores, body weight, physical examinations; clinical pathology, anatomic pathology, and histopathological grading of vaginal tissues. Treatment-related microscopic findings occurred in the proximal, mid, and distal vagina.
A total of 26 female experimentally naïve New Zealand White Hra:(NZW)SPF albino rabbits (approximately 7.5 months of age at receipt) were received from Covance Research Products, Greenfield, Ind. During the 9-day acclimation period, the animals were observed daily with respect to general health and any signs of disease.
The vaginal region of the animals was evaluated for signs of irritation using a modified Draize scoring system as presented in the following table. Evaluations were conducted prior to each daily dose and daily during the recovery period. Any abnormalities observed during this examination were documented as a detailed clinical observation. A score of “1” or above was confirmed by a member of the veterinary staff.

In series [4] the test system is postmenopausal hysterectomized patients with atrophic vaginitis. As to conditions: 3 months of vaginal suppository, 4 patients.
Description: The primary efficacy endpoints were normalization of vaginal pH and improvement in vaginal dryness symptom. Safety assessments consisted of monitoring and recording all adverse events and serious adverse events. […] The blood tests were measured after 5 hours after vaginal administration.
Series [5] shares this test system. The experiment in a line: Pilot study of tamoxifen citrate vaginal suppository: self-assessment of vaginal dryness (VAS). In kind it is in vivo, human. The method, then: as §1, §2, §3, §4, §5
Where [6] appears, read: Day 28, 1 and 20 mg/mL groups, female rabbits.
The mark [7] stands for this setting: female, New Zealand White, rabbit, in vivo.
Setting [8] is: 20 mg vaginal suppository daily for one week then twice per week, month 3, 4 subjects.
Where [9] appears, read: 20 mg vaginal suppository, month 3 versus enrollment, negative = decrease.
Where [10] appears, read: baseline before treatment, 4 subjects.

In the case of `CCC(=C(c1ccc(O)cc1)c1ccc(OCCN(C)C)cc1)c1ccccc1` [4-Hydroxytamoxifen], in series [1] (setting [6]), the “Ratio of high to low mean values, AUC0-t/Dose” value is on record as 3.16 and the “Ratio of high to low mean values, Cmax/Dose” value turned out to be 4.24. Moreover, the “Ratio of mean metabolite to Tamoxifen AUC0-t values” in series [1] (Day 28, High Dose 20 mg/mL, female rabbits) was determined as 0.148. Further, the “Ratio of mean metabolite to Tamoxifen AUC0-t values” in series [1] (Day 28, Low Dose 1 mg/mL, female rabbits) is 0.0702. The “Median Tmax, range over dose groups” value in series [1] (rabbit, in vivo) fell in the range of 1 to 8 h.
As to `CC/C(=C(\c1ccccc1)c1ccc(OCCNC)cc1)c1ccccc1` [N-Desmethyltamoxifen], the “Tmax (median)” value in series [1] (rabbit, in vivo) worked out at 1 h.
As for `CC/C(=C(\c1ccccc1)c1ccc(OCCN(C)C)cc1)c1ccccc1` [Tamoxifen, 1-(p-dimethylamino-ethoxphenyl)-2-ethyl-1,2-diphenylethylene, reference compound], in series [1] (setting [7]), the “Mean AUC0-t, range over dose groups” value was in the range of 8.85 to 26.5 ng·h/mL and the “Mean Cmax, range over dose groups” value fell in the range of 0.824 to 2.33 ng/mL. Moreover, the time to peak (Tmax) in series [1] (female, New Zealand White, rabbit, in vivo, Median Tmax, range over dose groups) is 0.5 to 1 h. Further, the time of peak concentration (Tmax) in series [1] (female, New Zealand White, rabbit, in vivo, Tmax (median)) stood at 1 h. In series [2] (after initiation of therapy), the “time to steady state concentrations” value is reported as “about 4 weeks”. Also, the “average steady state plasma concentration” value in series [2] (once daily for 3 months) is 122 ng/mL.
With `CC/C(=C(\c1ccccc1)c1ccc(OCCN(C)C)cc1)c1ccccc1.O=C(O)CC(O)(CC(=O)O)C(=O)O` [tamoxifen citrate, (Z) 2-[4-(1,2-diphenyl-1-butenyl)phenoxy]-N, N-dimethylethanamine 2-hydroxy-1,2,3-propanetricarboxylate], the “pH Month 3, median” value in series [3] (setting [8]) came to 5.0. Moreover, the “vaginal pH, Paired Difference enrollment to month 3, median” value in series [3] (setting [9]) was −2.0. In addition, in series [3] (after 3 months, twice per week regimen), the “lowering of vaginal pH compared with conjugated estrogens” value is given as “as effective as conjugated estrogens”. In series [3] (setting [10]), the “pH Enrollment, median” value worked out at 7.1. Further, the “vaginal irritation (erythema, edema scores)” value in the series on female rabbits (1 and 20 mg/mL intravaginal once daily, 28 days) is “no test article-related vaginal irritation”. Also, the “vaginal irritation during recovery period” value in the series with female rabbits (14-day recovery period) is listed as “no signs of vaginal irritation”. For the same compound, in the series on female rabbits (low and high doses (1 and 20 mg/mL), 28 days), the “vaginal irritation compared with vehicle control” value is recorded as “did not appear to be any more irritating than the vehicle control”. The “drop-outs, serious adverse events, deaths” value in series [4] was “no patient drop-outs, serious adverse events, or deaths”. Moreover, in series [5] (setting [8]), the “Vaginal Dryness Month 3, median (VAS)” value amounted to 3.0. Moreover, the “Vaginal Dryness, Paired Difference enrollment to month 3, median” value in series [5] (setting [9]) was −5.5. The “Vaginal Dryness Enrollment, median (VAS)” value in series [5] (setting [10]) is 8.0.
